Laboratory results taken from patent US20250249013A1, “COMBINATION METABOLIC-EPIGENETIC TREATMENT FOR EARLY LUNG CANCER” (THE REGENTS OF THE UNIVERSITY OF CALIFORNIA, priority 2022, published 2025).

Columns and labels:
A549 cells [1] = experiment: EZH2 inhibition with GSK126 in low glucose, western blot; format: cell-based, human; settings: GSK126 0.25 μM
Description: (§1) Human lung cancer A549 (CCL-185) and NCI-H358 (CRL-5807) cells lines were purchased from American Type Culture Collection (ATCC, Manassas, VA). Cells were maintained in culture according to manufacturer protocol using Roswell Park Memorial Institute (RPMI) 1640 medium (Corning, Cat. #10-040CV) supplemented with 10% FBS and 5% 1× Pen-Strep and kept in 37° C. and 5% of CO2. Murine 2953A cell line was established in our lab from a KP lung tumor by tissue dissociation. This cell line was maintained in culture in Dulbecco's modified Eagle Medium (DMEM) medium (Corning, Cat. #10-017CV) with 5% FBS and 5% 1× Pen-Strep.
(§2) All experiments in cell lines were performed in biological triplicate. Cells were seeded at same confluence and grown for 5 days (and for some experiments overnight or up to 9 days or 30 days, as indicated in the figures and text) in different concentration of glucose: high (20 mM), low (1 mM) and for some experiments medium (5 mM), as indicated. We used mediums with glutamine and without glucose: RPMI (Corning Cat. #10-043CV) for A549 and NCI-H358 cells, DMEM (ThermoScientific Cat. #11566025) for 2953A cells, supplemented with 10% FBS, 5% of 1× Pen-Strep and complemented with D-Glucose to the desired final concentration, as indicated in the figures.
(§3) For total protein extraction, cells were harvested, washed twice with ice-cold PBS-EDTA (0.5 mm EDTA), lysed using RIPA buffer (50 mM Tris-HCl pH 7.6, 150 mM NaCl, 0.1% SDS, 0.5% C24H39NaO4, 1% NP-40, 2 mm EDTA, 50 mm NaF) for 15 min on ice and centrifuged at 13,000 rpm for 30 min at +4° C. The resulting protein extracts were quantified using BCA protein assay followed by analysis by SDS-PAGE and Western blotting.
(§4) Histones was extracted from A549, NCI-H358 and 2953A cell lines using the Histone extraction kit (Abcam) according to manufacturer instructions.
(§5) SDS-PAGE and Western blotting analyses were performed using standard protocols. For antibodies information, see Reagents and Tools Table. Western blot images were detected by iBright Imaging Systems (Thermo Fisher Scientific). The protein detected was normalized to Actin or H3 total antibodies, this last in case of histonic extract. Each immunodetection derived from the same membrane was performed with the same exposure times according to the manufacture's antibody guidelines and was cropped only for presentation purposes; this is indicated by a dotted line.

NCI-H358 cells [2] = experiment: as above; format: cell-based, human; settings: GSK126 0.25 μM
Description: as §1, §2, §3, §4, §5

LUAD = settings: genetically engineered murine models and patient-derived xenografts; cited from earlier work
A549 cells [3] = experiment: αKG rescue in low glucose, western blot and RT-PCR; format: cell-based, human
Description: as §1, §2
(§6) All αKG rescue experiments were conducted using 10 mM alpha-ketoglutarate (α-KG; Sigma) and α-Mannitol (Sigma) as osmotic control.
as §3, §4, §5
(§7) Total RNA was extracted from A549, NCI-H358 and 2953A by using TRI Reagent Solution (Applied Biosystem), according to manufacturer instruction. RNA concertation was assayed by Nanodrop 3000 spectrophotometer (Thermo Fisher Scientific). Then, 1 μg of RNA was treated with DNase I (Thermo Fisher Scientific) and used for cDNA preparation.
(§8) cDNA was prepared using 1 μg of RNA with SuperScript IV Reverse Transcriptase (Invitrogen). SYBR green-based RT-PCR kit (Biorad) was performed using human and mouse primers (See Table EV11). mRNA levels were normalized to GAPDH (ΔCt=Ctgene of interest-Ct GAPDH) and presented as relative mRNA expression (ΔΔCt=2-(ΔCtsample-ΔCtcontrol)). All primers were designed by NCBI Primer-BLAST and purchased from Integrated DNA Technologies.

NCI-H358 cells [4] = experiment: αKG rescue in low glucose, western blot and RT-PCR; format: cell-based, human
Description: as §1, §2, §6, §3, §4, §5, §7, §8

2953A cells = experiment: αKG rescue in low glucose, western blot and RT-PCR; format: cell-based, mouse; settings: low glucose 5 days
Description: as §1, §2, §6, §3, §4, §5, §7, §8

A549 cells [5] = experiment: RNA-seq, low glucose with dm-αKG; format: cell-based, human; settings: A549, low glucose + dm-αKG 10 mM, five days
Description: (§9) A549 and NCI-H358 cell lines were incubated in triplicate with high glucose (20 mM), low glucose (1 mM), and low glucose+dm-αKG (10 mM). Total RNA was extracted as previously described. RNA sequencing was performed by Med Genome. Sample quality control was performed using Quibit fluorometric (Agilent) and Tapestation bioanalyzer (Agilent). For library preparation TruSeq Stranded Total RNA kit (Illumina) was used and libraries were sequenced on NovaSeq platform (Illumina). The FASTQ data generated was used for gene expression analysis, performed as described in Nassa et al (Nassa et al, 2019).
(§10) Briefly, the raw sequence files generated (.fastq files) underwent quality control analysis using FASTQC (http://www.bioinformatics.babraham.ac.uk/projects/fastqc/) and adapter sequences were removed using Trimmomatic version 0.38 (Bolger et al, 2014) Filtered reads were aligned on human genome (assembly hg38) considering genes present in GenCode Release 35 (GRCh38.p12) using STAR v2.7.6a (Dobin et al, 2013) with standard parameters. Quantification of expressed genes was performed using featureCounts (Liao et al, 2014) and differentially expressed genes were identified using DESeq2 (Love et al, 2014). A given RNA was considered expressed when detected by at least ≥10 raw reads.
(§11) Differential expression was reported as Ifold-changel (FC)[…] along with associated adjusted pvalues≤0.05 computed according to Benjamini-Hochberg. Gene Set Enrichment Analysis (GSEA) was performed to examine pathway enrichment for the differential expressed genes with the Molecular Signature Database “Hallmarks” gene set collection (Liberzon et al, 2015). Only those with an FDR […] have been selected.

NCI-H358 cells [6] = experiment: RNA-seq, low glucose with dm-αKG; format: cell-based, human; settings: NCI-H358, low glucose + dm-αKG 10 mM, five days
Description: as §9, §10, §11

A549 and NCI-H358 cells = experiment: RNA-seq, genes regulated consistently in both cell lines; format: cell-based, human; settings: significantly regulated in at least 3 of the four conditions
Description: as §9
as §10, with “reads. […]” for “reads.”

[7] = A549, low glucose (1 mM) 5 days
[8] = A549, low glucose 5 days, dm-αKG
[9] = A549, low glucose 5 days, dm-αKG 10 mM
[10] = NCI-H358, low glucose 5 days, dm-αKG
[11] = NCI-H358, low glucose 5 days, dm-αKG 10 mM

CC[C@H](C)n1cc(C)c2c(C(=O)NCc3c(C)cc(C)[nH]c3=O)cc(-c3ccc(N4CCNCC4)nc3)cc21 [GSK126]
rescued: expression of FoxA2, western blot (A549 cells [1]; [7]) | tri-methylation of H3K27, western blot (A549 cells [1]; [7]) | expression of FoxA2, western blot (NCI-H358 cells [2]) | tri-methylation of H3K27, western blot (NCI-H358 cells [2])
inhibited: EZH2 activity (A549 cells [1]; A549, low glucose) | EZH2 activity (NCI-H358 cells [2])

Cc1ccc([C@@H]2O[C@H](CO)[C@@H](O)[C@H](O)[C@H]2O)cc1Cc1ccc(-c2ccc(F)cc2)s1 [canagliflozin]
reduces tumor growth: tumor growth (LUAD)
prolongs survival: survival (LUAD)
significantly delays: development of LUAD (LUAD)

COC(=O)CCC(=O)C(=O)OC [dm-αKG, dimethyl-αKG]
445 genes: genes down-regulated by low glucose consistently in both cell lines and rescued by dm-αKG (A549 and NCI-H358 cells)
reversed: low glucose-induced up-regulation of HIF1α protein, western blot (A549 cells [3]; [8]) | low glucose-induced up-regulation of HIF2α protein, western blot (A549 cells [3]; [8]) | low glucose-induced up-regulation of HIF1α protein, western blot (NCI-H358 cells [4]; [10]) | low glucose-induced up-regulation of HIF2α protein, western blot (NCI-H358 cells [4]; [10])
reverse: H3K4 hyper-methylation, western blot on histone extracts (A549 cells [3]; [8]) | H3K9 hyper-methylation, western blot on histone extracts (A549 cells [3]; [8]) | H3K27 hyper-methylation, western blot on histone extracts (A549 cells [3]; [8]) | H3K27 hypo-acetylation, western blot on histone extracts (A549 cells [3]; [8]) | H3K4 hyper-methylation, western blot on histone extracts (NCI-H358 cells [4]; [10]) | H3K9 hyper-methylation, western blot on histone extracts (NCI-H358 cells [4]; [10]) | H3K27 hyper-methylation, western blot on histone extracts (NCI-H358 cells [4]; [10]) | H3K27 hypo-acetylation, western blot on histone extracts (NCI-H358 cells [4]; [10]) | H3K4 hyper-methylation, western blot on histone extracts (2953A cells; dm-αKG) | H3K9 hyper-methylation, western blot on histone extracts (2953A cells; dm-αKG) | H3K27 hyper-methylation, western blot on histone extracts (2953A cells; dm-αKG) | H3K27 hypo-acetylation, western blot on histone extracts (2953A cells; dm-αKG)
reduced: GLUT1 expression, qPCR (A549 cells [3]; [9]) | GLUT1 expression, qPCR (NCI-H358 cells [4]; [11]) | GLUT1 expression, qPCR (2953A cells; dm-αKG 10 mM)
did not have any effect: HIF1α and HIF2α protein, western blot, control condition (A549 cells [3]; A549, cells growing in low glucose (so in the source), dm-αKG) | HIF1α and HIF2α protein, western blot, control condition (NCI-H358 cells [4]; NCI-H358, cells growing in low glucose (so in the source), dm-αKG)
1,634 genes: number of low glucose up-regulated genes rescued by dm-αKG (A549 cells [5]; 2,394 genes up-regulated by low glucose)
370 genes: number of low glucose down-regulated genes rescued by dm-αKG (NCI-H358 cells [6]; 942 genes down-regulated by low glucose)
1,431 genes: number of low glucose down-regulated genes rescued by dm-αKG (A549 cells [5]; 2,024 genes down-regulated by low glucose)
524 genes: genes up-regulated by low glucose consistently in both cell lines and rescued by dm-αKG (A549 and NCI-H358 cells)
510 genes: number of low glucose up-regulated genes rescued by dm-αKG (NCI-H358 cells [6]; 1,335 genes up-regulated by low glucose)
partially rescued: low glucose-induced reduction in Snail, western blot (A549 cells [3]; [8]) | low glucose-induced reduction in ZEB1, western blot (A549 cells [3]; [8])
rescued: low glucose-induced increase of Slug, western blot (A549 cells [3]; [8]) | low glucose-induced repression of PHD3 expression, RT-PCR (A549 cells [3]; [8]) | low glucose-induced up-regulation of HIF1α mRNA, RT-PCR (A549 cells [3]; [8]) | low glucose-induced up-regulation of HIF2α mRNA, RT-PCR (A549 cells [3]; [8]) | low glucose-induced inhibition of FoxA2 mRNA, qPCR (A549 cells [3]; [9]) | low glucose-induced reduction in FOXA2 protein, western blot (A549 cells [3]; [9]) | low glucose-induced increase of Slug, western blot (NCI-H358 cells [4]; [10]) | low glucose-induced repression of PHD3 expression, RT-PCR (NCI-H358 cells [4]; [10]) | low glucose-induced up-regulation of HIF1α mRNA, RT-PCR (NCI-H358 cells [4]; [10]) | low glucose-induced up-regulation of HIF2α mRNA, RT-PCR (NCI-H358 cells [4]; [10]) | low glucose-induced inhibition of FoxA2 mRNA, qPCR (NCI-H358 cells [4]; [11]) | low glucose-induced inhibition of TTF-1 mRNA, qPCR (NCI-H358 cells [4]; [11]) | low glucose-induced reduction in FOXA2 protein, western blot (NCI-H358 cells [4]; [11]) | low glucose-induced reduction in TTF1 protein, western blot (NCI-H358 cells [4]; [11]) | low glucose-induced inhibition of FoxA2 mRNA, qPCR (2953A cells; dm-αKG 10 mM) | low glucose-induced reduction in FOXA2 protein, western blot (2953A cells; dm-αKG 10 mM)
